According to US20250230155A1 (Vanderbilt University, priority 2021, published 2025):

Target: T1, human mAChR M4 (Homo sapiens, UniProt P08173)
T1 construct: expressed in transfected cells
T1 sequence (P08173 1-479): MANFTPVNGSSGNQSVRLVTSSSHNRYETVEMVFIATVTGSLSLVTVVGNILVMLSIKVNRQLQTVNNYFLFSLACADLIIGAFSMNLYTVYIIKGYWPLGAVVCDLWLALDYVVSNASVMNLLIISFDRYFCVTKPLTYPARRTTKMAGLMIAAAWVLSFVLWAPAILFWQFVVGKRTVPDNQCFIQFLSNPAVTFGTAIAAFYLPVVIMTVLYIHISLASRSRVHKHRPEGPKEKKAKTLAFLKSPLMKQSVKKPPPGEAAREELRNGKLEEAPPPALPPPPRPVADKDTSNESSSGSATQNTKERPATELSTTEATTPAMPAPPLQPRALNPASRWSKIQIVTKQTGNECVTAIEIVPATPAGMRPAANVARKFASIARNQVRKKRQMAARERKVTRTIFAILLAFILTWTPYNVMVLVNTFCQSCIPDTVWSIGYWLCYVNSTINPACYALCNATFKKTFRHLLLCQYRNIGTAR
Assay: mAChR M4 cell-based functional assay (calcium mobilization, CHO-K1 hM4-Gqi5 cells)
Conditions: for Emax at 30 µM: CHO-K1, % ACh maximum at 30 μM, human M4; for EC50: positive allosteric modulator activity, increase in the EC20 acetylcholine response, CHO-K1 hM4-Gqi5 cells, read-out: Human M4 EC50
Outline: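 CHO-K1 cells stably expressing human M4 with chimeric Gqi5, loaded with Fluo-4 AM; compounds given as 11-point 1:3 curves and calcium flux read on FDSS at 1 Hz. Acetylcholine EC20 added at 144 s, EC80 at 230 s; agonist, PAM (EC20 potentiation) and antagonist (EC80 inhibition) EC50/Emax from four-parameter fits.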

| SMILES | Emax at 30 µM | EC50 | Emax (CHO-K1) |
| --- | --- | --- | --- |
| CNC(=O)c1ccc(CNC(=O)c2cnc(N3CCc4ncccc4C3)c(C)c2)cc1 [compound 149, 6-(7,8-dihydro-5H-1,6-naphthyridin-6-yl)-5-methyl-N-[[4-(methylcarbamoyl)phenyl]methyl] pyridine-3-carboxamide] | 56% | ≥ 10000 nM | – |
| Cc1cc(C(=O)NCc2ccc3nn[nH]c3c2)cnc1N1CCc2ncccc2C1 [compound 150, N-(3H-benzotriazol-5-ylmethyl)-6-(7,8-dihydro-5H-1,6-naphthyridin-6-yl)-5-methyl-pyridine-3-carboxamide] | 61% | 4680 nM | – |
| Cc1cc(C(=O)NCc2ccc3ncnn3c2)cnc1N1CCc2ncccc2C1 [compound 151, 6-(7,8-dihydro-5H-1,6-naphthyridin-6-yl)-5-methyl-N-([1,2,4]triazolo[1,5-a]pyridin-6-ylmethyl)pyridine-3-carboxamide] | 67% | 3250 nM | – |
| COc1cc(CNC(=O)c2cnc(N3CCc4ncccc4C3)c(C)c2)ccc1F [compound 152, 6-(7,8-dihydro-5H-1,6-naphthyridin-6-yl)-N-[(4-fluoro-3-methoxy-phenyl)methyl]-5-methyl-pyridine-3-carboxamide] | 64% | 2120 nM | – |
| Cc1cc(C(=O)NCc2ccc3c(c2)COC3)cnc1N1CCc2ncccc2C1 [compound 153, N-(1,3-dihydroisobenzofuran-5-ylmethyl)-6-(7,8-dihydro-5H-1,6-naphthyridin-6-yl)-5-methyl-pyridine-3-carboxamide] | 68% | 3170 nM | – |
| Cc1cc(C(=O)NCc2ccc3c(c2)CC(=O)N3)cnc1N1CCc2ncccc2C1 [compound 154, 6-(7,8-dihydro-5H-1,6-naphthyridin-6-yl)-5-methyl-N-[(2-oxoindolin-5-yl)methyl]pyridine-3-carboxamide] | 47% | 6560 nM | – |
| Cc1cc(C(=O)NCc2cnc3c(c2)CCC3)cnc1N1CCc2ncccc2C1 [compound 155, N-(6,7-dihydro-5H-cyclopenta[b]pyridin-3-ylmethyl)-6-(7,8-dihydro-5H-1,6-naphthyridin-6-yl)-5-methyl-pyridine-3-carboxamide] | 63% | 3910 nM | – |
| Cc1cc(C(=O)NCc2cccc3cccnc23)cnc1N1CCc2ncccc2C1 [compound 156, 6-(7,8-dihydro-5H-1,6-naphthyridin-6-yl)-5-methyl-N-(8-quinolylmethyl)pyridine-3-carboxamide] | 84% | 1150 nM | – |
| Cc1cc(C(=O)NCc2ccc3nccnc3c2)cnc1N1CCc2ncccc2C1 [compound 157, 6-(7,8-dihydro-5H-1,6-naphthyridin-6-yl)-5-methyl-N-(quinoxalin-6-ylmethyl)pyridine-3-carboxamide] | 57% | 3480 nM | – |
| Cc1cc(C(=O)NCc2ccc3c(c2)n(C)c(=O)n3C)cnc1N1CCc2ncccc2C1 [compound 158, 6-(7,8-dihydro-5H-1,6-naphthyridin-6-yl)-N-[(1,3-dimethyl-2-oxo-benzimidazol-5-yl)methyl]-5-methyl-pyridine-3-carboxamide] | 68% | 3640 nM | – |
| Cc1cc(C(=O)NCc2cccc(F)c2)cnc1N1CCc2ncccc2C1 [compound 159, 6-(7,8-dihydro-5H-1,6-naphthyridin-6-yl)-N-[(3-fluorophenyl)methyl]-5-methyl-pyridine-3-carboxamide] | 69% | 3130 nM | – |
| Cc1cc(C(=O)NCC2CCOCC2)cnc1N1CCc2ncccc2C1 [compound 160, 6-(7,8-dihydro-5H-1,6-naphthyridin-6-yl)-5-methyl-N-(tetrahydropyran-4-ylmethyl)pyridine-3-carboxamide] | 51% | ≥ 10000 nM | – |
| Cc1cc(C(=O)NCC2CCCCO2)cnc1N1CCc2ncccc2C1 (stereo not shown) [compound 161, 6-(7,8-dihydro-5H-1,6-naphthyridin-6-yl)-5-methyl-N-(tetrahydropyran-2-ylmethyl)pyridine-3-carboxamide] | 58% | ≥ 10000 nM | – |
| COc1cccc2cc(CNC(=O)c3cnc(N4CCc5ncccc5C4)c(C)c3)oc12 [compound 162, 6-(7,8-dihydro-5H-1,6-naphthyridin-6-yl)-N-[(7-methoxybenzofuran-2-yl)methyl]-5-methyl-pyridine-3-carboxamide] | 65% | 3350 nM | – |
| Cc1cc(C(=O)NCc2ccc[nH]2)cnc1N1CCc2ncccc2C1 [compound 163, 6-(7,8-dihydro-5H-1,6-naphthyridin-6-yl)-5-methyl-N-(1H-pyrrol-2-ylmethyl)pyridine-3-carboxamide] | 65% | 2660 nM | – |
| Cc1cc(C(=O)NCc2ccc3c(c2)CCS3(=O)=O)cnc1N1CCc2ncccc2C1 [compound 164, 6-(7,8-dihydro-5H-1,6-naphthyridin-6-yl)-N-[(1,1-dioxo-2,3-dihydrobenzothiophen-5-yl)methyl]-5-methyl-pyridine-3-carboxamide] | 54% | ≥ 10000 nM | – |
| Cc1cc(C#N)cnc1N1CCc2ncc(C(F)(F)F)cc2C1 [compound 165, 5-methyl-6-[3-(trifluoromethyl)-7,8-dihydro-5H-1,6-naphthyridin-6-yl]pyridine-3-carbonitrile] | 111% | 145 nM | – |
| Cc1cc(C#N)cnc1N1CCc2ncc(Nc3cccnc3F)cc2C1 [compound 166, 6-[3-[(2-fluoro-3-pyridyl)amino]-7,8-dihydro-5H-1,6-naphthyridin-6-yl]-5-methyl-pyridine-3-carbonitrile] | – | 45.1 nM | 106% |
| Cc1cc(C#N)cnc1N1CCc2ncc(Nc3ncccc3F)cc2C1 [compound 167, 6-[3-[(3-fluoro-2-pyridyl)amino]-7,8-dihydro-5H-1,6-naphthyridin-6-yl]-5-methyl-pyridine-3-carbonitrile] | 91% | 265 nM | – |
| Cc1cc(C#N)cnc1N1CCc2ncc(-c3cccc(F)n3)cc2C1 [compound 168, 6-[3-(6-fluoro-2-pyridyl)-7,8-dihydro-5H-1,6-naphthyridin-6-yl]-5-methyl-pyridine-3-carbonitrile] | 91% | 420 nM | – |
| Cc1c(C#N)nnc(N2CCc3ncc(Nc4ccnn4C)cc3C2)c1C [compound 169, 4,5-dimethyl-6-[3-[(2-methylpyrazol-3-yl)amino]-7,8-dihydro-5H-1,6-naphthyridin-6-yl]pyridazine-3-carbonitrile] | 100% | 111 nM | – |
| Cc1cc(C(=O)NCc2nccs2)cnc1N1CCc2ncc(-c3cn(C)nc3C)cc2C1 [compound 170, 6-[3-(1,3-dimethylpyrazol-4-yl)-7,8-dihydro-5H-1,6-naphthyridin-6-yl]-5-methyl-N-(thiazol-2-ylmethyl)pyridine-3-carboxamide] | 103% | 110 nM | – |
| Cc1cc(C(=O)NCc2nccs2)cnc1N1CCc2ncc(-c3ccn(C)n3)cc2C1 [compound 171, 5-methyl-6-[3-(1-methylpyrazol-3-yl)-7,8-dihydro-5H-1,6-naphthyridin-6-yl]-N-(thiazol-2-ylmethyl)pyridine-3-carboxamide] | 87% | 265 nM | – |
| Cc1cc(C(=O)NCc2nccs2)cnc1N1CCc2ncc(-c3c(C)noc3C)cc2C1 [compound 172, 6-[3-(3,5-dimethylisoxazol-4-yl)-7,8-dihydro-5H-1,6-naphthyridin-6-yl]-5-methyl-N-(thiazol-2-ylmethyl)pyridine-3-carboxamide] | 93% | 78.5 nM | – |
| Cc1cc(C(=O)NCc2nccs2)cnc1N1CCc2ncc(-c3cnn(C)c3)cc2C1 [compound 173, 5-methyl-6-[3-(1-methylpyrazol-4-yl)-7,8-dihydro-5H-1,6-naphthyridin-6-yl]-N-(thiazol-2-ylmethyl)pyridine-3-carboxamide] | 95% | 77.3 nM | – |
| Cc1cc(F)ncc1-c1cnc2c(c1)CN(c1ncc(C(=O)NCc3nccs3)cc1C)CC2 [compound 174, 6-[3-(6-fluoro-4-methyl-3-pyridyl)-7,8-dihydro-5H-1,6-naphthyridin-6-yl]-5-methyl-N-(thiazol-2-ylmethyl)pyridine-3-carboxamide] | 98% | 75.8 nM | – |
| Cc1cc(C(=O)NCc2nccs2)cnc1N1CCc2ncc(-c3cccnc3F)cc2C1 [compound 175, 6-[3-(2-fluoro-3-pyridyl)-7,8-dihydro-5H-1,6-naphthyridin-6-yl]-5-methyl-N-(thiazol-2-ylmethyl)pyridine-3-carboxamide] | 89% | 145 nM | – |
| Cc1cc(C(=O)NCc2ccncc2)cnc1N1CCc2ncc(-c3cnn(C)c3)cc2C1 [compound 176, 5-methyl-6-[3-(1-methylpyrazol-4-yl)-7,8-dihydro-5H-1,6-naphthyridin-6-yl]-N-(4-pyridylmethyl)pyridine-3-carboxamide] | 89% | 188 nM | – |
| Cc1cc(F)ncc1-c1cnc2c(c1)CN(c1ncc(C(=O)NCc3ccncc3)cc1C)CC2 [compound 177, 6-[3-(6-fluoro-4-methyl-3-pyridyl)-7,8-dihydro-5H-1,6-naphthyridin-6-yl]-5-methyl-N-(4-pyridylmethyl)pyridine-3-carboxamide] | 91% | 101 nM | – |
